Measurements taken from patent US8372871B2, “Histidinol dehydrogenase inhibitors, and use thereof as medicaments” (priority 2008, dated 2013).

Columns and labels:
[1] = test system: B. suis; test: microbe, parasite or virus in culture; assay type: cell-based, Brucella suis
[2] = target: B. suis histidinol dehydrogenase (Brucella suis biovar 1, UniProt Q8G2R2); test: biochemical; assay type: biochemical
[3] = test system: B. suis in the macrophage; assay type: cell-based, Brucella suis
[4] = Brucella suis, 168 h, read-out: Effects on the growth of B. suis (%) (inhibition of bacterial growth)

B. suis histidinol dehydrogenase, sequence (Q8G2R2 whole entry, looked up): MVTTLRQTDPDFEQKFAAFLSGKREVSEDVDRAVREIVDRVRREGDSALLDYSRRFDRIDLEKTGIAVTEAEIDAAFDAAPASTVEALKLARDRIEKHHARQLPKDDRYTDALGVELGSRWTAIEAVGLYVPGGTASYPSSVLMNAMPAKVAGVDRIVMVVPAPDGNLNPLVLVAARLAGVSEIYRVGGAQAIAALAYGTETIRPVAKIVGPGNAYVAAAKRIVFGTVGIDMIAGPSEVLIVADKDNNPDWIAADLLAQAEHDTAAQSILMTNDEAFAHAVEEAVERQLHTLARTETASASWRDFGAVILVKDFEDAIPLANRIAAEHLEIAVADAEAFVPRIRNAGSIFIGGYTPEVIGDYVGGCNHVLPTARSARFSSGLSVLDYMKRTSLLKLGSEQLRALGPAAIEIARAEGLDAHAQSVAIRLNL

SMILES: N[C@@H](Cc1c[nH]cn1)C(=O)Cc1ccc(C#Cc2ccccc2)cc1 [Compound 3a, (3S)-3-amino-4-(1H-imidazol-4-yl)-1-[4-(phenylethynyl)phenyl] butan-2-one dihydrochlorhydrate]
- Inhibition of the growth of the bacteria in liquid medium [1]: completely inhibit
- inhibition at 50 µM [1, 4]: 100%
- inhibition at 100 µM [1, 4]: 100%
- Affinity for HDH [2]: significant affinity
- IC50 [2]: 3 nM
- Inhibition of the intracellular proliferation of the bacteria in the macrophage [3]: approximately 1000 times
